Where two headings read alike, the source gives them in different places.
Key:
[1] = tested on: Mycosphaerella graminicola; Anamorph: Septoria tritici; test: Fungicidal activity: Leaf Blotch of Wheat (SEPTTR); type: in vivo; details: Zymoseptoria tritici, wheat leaf blotch; for pest or weed control at 100 µg/mL: High Volume (100 ppm); for pest or weed control at 121.5 g/ha: Low Volume (121.5 g/H)
In short: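 Compounds were dissolved in acetone, diluted with nine volumes of water containing 110 ppm Triton X-100, and sprayed to run-off on first-leaf Yuma wheat seedlings inoculated with Septoria tritici spores before or after treatment. Plants were held in a dew chamber, then a 20° C. greenhouse. Percent control was derived from disease severity relative to untreated plants.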

Puccinia triticina = test: Fungicidal activity: Wheat Brown Rust (PUCCRT); type: in vivo; details: for pest or weed control at 100 µg/mL: High Volume (100 ppm); for pest or weed control at 121.5 g/ha: Low Volume (121.5 g/H)
In short: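 Percent control of brown rust was derived from 0-100% severity on treated versus untreated first leaves. Yuma wheat seedlings were spray-treated to run-off (acetone/water, Triton X-100) and inoculated with P. triticina spores before or after treatment, then held overnight in dark dew at 22° C and moved to a 24° C greenhouse.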

[2] = 24 h, 1 Day Protectant, read-out: SEPTTR 1 DP disease control
[3] = 72 h, 3 Day Curative, read-out: SEPTTR 3 DC disease control
[4] = 24 h, 1 Day Protectant, read-out: PUCCRT 1 DP disease control
[5] = 72 h, 3 Day Curative, read-out: PUCCRT 3 DC disease control

melting point [°C]	SMILES	pest or weed control at 121.5 g/ha [1, 2] [%]	pest or weed control at 121.5 g/ha [1, 3] [%]	pest or weed control at 121.5 g/ha (Puccinia triticina; [4]) [%]	pest or weed control at 121.5 g/ha (Puccinia triticina; [5]) [%]	also measured
164 to 167	C[C@@H]1OC(=O)[C@@H](N)COC[C@H](CC2CCCC2)[C@H]1CC1CCCC1.Cl	–	–	–	–	–
172 to 175	C[C@@H]1OC(=O)[C@@H](N)COC[C@H](Cc2ccc(C(F)(F)F)cc2)[C@H]1Cc1ccc(OC(F)(F)F)cc1.Cl	–	–	–	–	–
35 to 40	C=C(C)COC[C@@H]1[C@@H](Cc2ccccc2)COC[C@H](NC(=O)c2nccc(OC)c2OCOC(C)=O)C(=O)O[C@H]1C [compound 11]	–	–	–	–	–
113 to 115	C[C@@H]1OC(=O)[C@@H](NC(=O)OC(C)(C)C)COC[C@H](Cc2ccc(Cl)cc2)[C@H]1C1CCCC1 [compound 237]	–	–	–	–	–
69 to 73	COc1ccnc(C(=O)N[C@H]2COC[C@H](Cc3ccccc3)[C@@H](c3ccccc3)[C@H](C)OC2=O)c1OCOC(=O)C(C)C [compound 52]	–	–	–	–	–
134 to 138	C=C[C@@H]1[C@@H](Cc2ccccc2)COC[C@H](NC(=O)OC(C)(C)C)C(=O)O[C@H]1C [compound 205]	–	–	–	–	–
163 to 168	CC(C)C[C@@H]1[C@@H](Cc2ccc(C(F)(F)F)cc2)COC[C@H](N)C(=O)O[C@H]1C.Cl	–	–	–	–	–
206 to 211	C[C@H]1OC(=O)[C@@H](N)COC[C@H](Cc2ccccc2)[C@H]1Cc1ccccc1.Cl	–	–	–	–	–
149 to 153	CC(C)CC[C@H]1COC[C@H](N)C(=O)O[C@@H](C)[C@@H]1C1CCCC1.Cl	–	–	–	–	–
66 to 71	C[C@@H]1OC(=O)[C@@H](NC(=O)OC(C)(C)C)COC[C@H](Cc2ccccc2)[C@H]1c1ccccc1 [compound 224]	–	–	–	–	–
47 to 51	C[C@@H]1OC(=O)[C@@H](NC(=O)OC(C)(C)C)COC[C@H](Cc2ccccc2)[C@H]1Cc1ccc(OC(F)(F)F)cc1 [compound 223]	–	–	–	–	–
144 to 148	C[C@@H]1OC(=O)[C@@H](N)COC[C@H](Cc2ccc(Cl)cc2)[C@H]1Cc1ccc(OC(F)(F)F)cc1.Cl	–	–	–	–	–
209 to 214	C[C@@H]1OC(=O)[C@@H](N)COC[C@H](Cc2ccccc2)[C@H]1COc1ccccc1.Cl	–	–	–	–	–
184 to 187	CCC[C@H]1COC[C@H](N)C(=O)O[C@@H](C)[C@@H]1Cc1ccc(F)cc1.Cl	–	–	–	–	–
–	COc1ccnc(C(=O)N[C@H]2COC[C@H](CC3CC3)[C@@H](Cc3ccc(F)cc3)[C@H](C)OC2=O)c1O [compound 153]	–	–	–	–	pest or weed control at 100 µg/mL [1, 2]: > 70%; pest or weed control at 100 µg/mL [1, 3]: > 70%; pest or weed control at 100 µg/mL (Puccinia triticina; [4]): > 70%; pest or weed control at 100 µg/mL (Puccinia triticina; [5]): > 70%
–	COc1ccnc(C(=O)N[C@H]2COC[C@H](Cc3ccc(C(F)(F)F)cc3)[C@@H](Cc3ccccc3)[C@H](C)OC2=O)c1OCOC(C)=O [compound 56]	> 70	< 70	> 70	< 70	–
–	COc1ccnc(C(=O)N[C@H]2COC[C@@H]3CCCC[C@H]3[C@@H](C)OC2=O)c1OCOC(C)=O [compound 5]	–	–	–	–	pest or weed control at 100 µg/mL [1, 2]: < 70%; pest or weed control at 100 µg/mL [1, 3]: < 70%; pest or weed control at 100 µg/mL (Puccinia triticina; [4]): < 70%
–	CCOCC(=O)OCOc1c(OC)ccnc1C(=O)N[C@H]1COC[C@H](CCC(C)C)[C@@H](Cc2ccccc2)[C@H](C)OC1=O [compound 45]	> 70	> 70	> 70	> 70	–
–	COc1ccnc(C(=O)N[C@H]2COC[C@H](Cc3ccccc3)[C@@H](Cc3ccc(OC(F)(F)F)cc3)[C@H](C)OC2=O)c1OC(C)=O [compound 50]	> 70	< 70	> 70	< 70	–

melting point [°C]	SMILES	pest or weed control at 121.5 g/ha [1, 2] [%]	pest or weed control at 121.5 g/ha [1, 3] [%]	pest or weed control at 121.5 g/ha (Puccinia triticina; [4]) [%]	pest or weed control at 121.5 g/ha (Puccinia triticina; [5]) [%]	also measured
–	COc1ccnc(C(=O)N[C@H]2COC[C@H](Cc3ccccc3)[C@@H](Cc3ccc(OC(F)(F)F)cc3)[C@H](C)OC2=O)c1OCOC(C)=O [compound 49]	> 70	< 70	> 70	< 70	–
–	COc1ccnc(C(=O)N[C@H]2COC[C@H](Cc3ccccc3)[C@@H](COCC(C)C)[C@H](C)OC2=O)c1O [compound 121]	–	–	–	–	pest or weed control at 100 µg/mL [1, 2]: < 70%; pest or weed control at 100 µg/mL [1, 3]: > 70%; pest or weed control at 100 µg/mL (Puccinia triticina; [4]): < 70%; pest or weed control at 100 µg/mL (Puccinia triticina; [5]): < 70%
–	COc1ccnc(C(=O)N[C@H]2COC[C@H](Cc3ccc(Cl)cc3)[C@@H](Cc3ccccc3)[C@H](C)OC2=O)c1O [compound 135]	–	–	–	–	pest or weed control at 100 µg/mL [1, 2]: > 70%; pest or weed control at 100 µg/mL [1, 3]: < 70%; pest or weed control at 100 µg/mL (Puccinia triticina; [4]): > 70%; pest or weed control at 100 µg/mL (Puccinia triticina; [5]): < 70%
–	COc1ccnc(C(=O)N[C@H]2COC[C@H](Cc3ccccc3)[C@@H](C3CCCC3)[C@H](C)OC2=O)c1OCOC(=O)C(C)C [compound 39]	> 70	> 70	> 70	> 70	–
–	COc1ccnc(C(=O)N[C@H]2COC[C@H](Cc3ccccc3)[C@@H](CCC(C)C)[C@H](C)OC2=O)c1O [compound 148]	–	–	–	–	pest or weed control at 100 µg/mL [1, 2]: > 70%; pest or weed control at 100 µg/mL [1, 3]: > 70%; pest or weed control at 100 µg/mL (Puccinia triticina; [4]): < 70%; pest or weed control at 100 µg/mL (Puccinia triticina; [5]): < 70%
–	COc1ccnc(C(=O)N[C@H]2COC[C@H](CCC(C)C)[C@@H](CCC(C)C)[C@H](C)OC2=O)c1O [compound 117]	–	–	–	–	pest or weed control at 100 µg/mL [1, 2]: > 70%; pest or weed control at 100 µg/mL [1, 3]: < 70%; pest or weed control at 100 µg/mL (Puccinia triticina; [4]): > 70%; pest or weed control at 100 µg/mL (Puccinia triticina; [5]): > 70%
–	CCOCC(=O)OCOc1c(OC)ccnc1C(=O)N[C@H]1COC[C@H](Cc2ccccc2)[C@@H](C2CCCC2)[C@H](C)OC1=O [compound 40]	> 70	> 70	> 70	> 70	–
–	CCC[C@H]1COC[C@H](NC(=O)c2nccc(OC)c2OCOC(C)=O)C(=O)O[C@@H](C)[C@@H]1c1ccccc1 [compound 97]	> 70	> 70	> 70	> 70	–
–	COc1ccnc(C(=O)N[C@H]2COC[C@H](CC3CC3)[C@@H](c3ccccc3)[C@H](C)OC2=O)c1OCOC(C)=O [compound 101]	> 70	> 70	> 70	> 70	–
–	COc1ccnc(C(=O)N[C@H]2COC[C@H](Cc3ccc(C(F)(F)F)cc3)[C@@H](Cc3ccc(F)cc3)[C@H](C)OC2=O)c1OC(C)=O [compound 79]	> 70	< 70	> 70	< 70	–
–	COc1ccnc(C(=O)N[C@H]2COC[C@H](Cc3ccc(Cl)cc3)[C@@H](CC(C)C)[C@H](C)OC2=O)c1OC(C)=O [compound 75]	> 70	> 70	> 70	< 70	–
–	COc1ccnc(C(=O)N[C@H]2COC[C@H](Cc3ccccc3)[C@@H](CCc3ccccc3)[C@H](C)OC2=O)c1O [compound 128]	–	–	–	–	pest or weed control at 100 µg/mL [1, 2]: > 70%; pest or weed control at 100 µg/mL [1, 3]: > 70%; pest or weed control at 100 µg/mL (Puccinia triticina; [4]): > 70%; pest or weed control at 100 µg/mL (Puccinia triticina; [5]): < 70%
–	CCCC[C@@H]1[C@@H](Cc2ccccc2)COC[C@H](NC(=O)c2nccc(OC)c2O)C(=O)O[C@H]1C [compound 110]	–	–	–	–	pest or weed control at 100 µg/mL [1, 2]: > 70%; pest or weed control at 100 µg/mL [1, 3]: > 70%; pest or weed control at 100 µg/mL (Puccinia triticina; [4]): < 70%; pest or weed control at 100 µg/mL (Puccinia triticina; [5]): < 70%
–	COc1ccnc(C(=O)N[C@H]2COC[C@H](CCC(C)C)[C@@H](CCc3ccccc3)[C@H](C)OC2=O)c1OCOC(C)=O [compound 34]	> 70	> 70	> 70	> 70	–
–	COc1ccnc(C(=O)N[C@H]2COC[C@H](Cc3ccccc3)[C@@H](CCC(C)C)[C@H](C)OC2=O)c1OCOC(C)=O [compound 85]	> 70	> 70	> 70	> 70	–
–	CCC[C@H]1COC[C@H](NC(=O)c2nccc(OC)c2OCOC(C)=O)C(=O)O[C@@H](C)[C@@H]1Cc1ccccc1 [compound 23]	> 70	> 70	> 70	> 70	–
–	COc1ccnc(C(=O)N[C@H]2COC[C@H](CCC(C)C)[C@@H](Cc3ccccc3)[C@H](C)OC2=O)c1O [compound 133]	–	–	–	–	pest or weed control at 100 µg/mL [1, 2]: > 70%; pest or weed control at 100 µg/mL [1, 3]: > 70%; pest or weed control at 100 µg/mL (Puccinia triticina; [4]): > 70%; pest or weed control at 100 µg/mL (Puccinia triticina; [5]): > 70%
–	COc1ccnc(C(=O)N[C@H]2COC[C@H](CCCc3ccccc3)[C@@H](Cc3ccccc3)[C@H](C)OC2=O)c1OCOC(C)=O [compound 42]	> 70	> 70	> 70	< 70	–
–	COc1ccnc(C(=O)N[C@H]2COC[C@H](CCCc3ccccc3)[C@@H](Cc3ccc(OC(F)(F)F)cc3)[C@H](C)OC2=O)c1O [compound 146]	–	–	–	–	pest or weed control at 100 µg/mL [1, 2]: < 70%; pest or weed control at 100 µg/mL [1, 3]: < 70%; pest or weed control at 100 µg/mL (Puccinia triticina; [4]): < 70%; pest or weed control at 100 µg/mL (Puccinia triticina; [5]): < 70%

Reference: patent publication US9955691B2, “Macrocyclic picolinamides as fungicides” (DOW AGROSCIENCES LLC, priority 2014, dated 2018)
